In data set [1] the test system is anti-IgM-induced lymphocyte proliferation. The data set can be described thus: Lymphocyte proliferation assay (3H-Thymidine), anti-IgM-stimulated splenocytes. In kind it is cell-based, mouse. The following applies: for pIC50: mouse splenocytes, 3H-Thymidine incorporation, read-out: IC50, lymphocyte proliferation, B-cells (anti-IgM). On the procedure: (A) Isolated mouse primary splenocytes were cultured with anti-CD3/anti-CD28 (0.3 μg/mL each) or anti-IgM (3 μg/mL) for 48 h, then 1 μCi 3H-Thymidine was added for 12 h and incorporation into DNA was measured, expressing data as fold increase above unstimulated cells (mean±SD; n=3). (B-D) Primary splenocytes were pretreated for 2 h with IKK inhibitor, BMS-335541 (B), PKC inhibitor, Bisindolylmaleimide I (C) or CID-2858522 (D), then stimulated with anti-CD3/anti-CD28 (0.3 μg/mL) or anti-IgM (3 μg/mL) for 48 h. 1 μCi 3H-Thymidine was added for 12 h and incorporation into DNA was measured, expressing data as percent inhibition relative to control cells treated with DMSO (mean±SD; n=3). […] Levels of TRAF1 and β-actin were assessed by immunoblotting, quantified by densitometry and TRAF1 results reported relative to control cells, after normalization for β-actin (mean±SD). […] Then nuclear extracts were prepared and p65-DNA-binding activity was measured (mean±SD; n=3).
Lymphocyte proliferation assay. Splenocytes were isolated from normal Balb/c mice and red blood cells were removed using a mouse erythrocyte lysis kit (R&D Systems, Minneapolis, Minn.). Splenocytes were suspended in RMPI-1640 medium supplemented with 10% FBS, 1% penicillin-streptomycin, and 1 mM L-glutamine. Cells were diluted into 2×10^6 cells/mL and 200 μL were seeded in round bottom 96-well plates and incubated at 37° C. in 5% CO2 and 95% relative humidity. Cells were pretreated with compounds or DMSO diluted in medium for 2 h, then treated with anti-CD3/anti-CD28 or anti-IgM antibodies for 48 h, prior to adding 1 μCi [^3H]-Thymidine for (MP Biomedical, Solon, Ohio) 12 h. Cells were transferred to fiberglass filters (Wallac, Turku, Finland) using a FilterMate Harvester (Perkin Elmer), dried, and [^3H]-incorporation into DNA was quantified by scintillation counting Betaplate Scint (Perkin Elmer) and a MicroBetaTrilux LCS and luminescence counter (Perkin Elmer).

Data set [2] relates to anti-CD3/CD28-induced IL-2 production. The data set can be described thus: IL-2 production by anti-CD3/CD28-stimulated Jurkat T cells (ELISA). The data set is classed as cell-based, human. The following applies: for suppression of IL-2 production: anti-CD3/CD28 Jurkat, IKK inhibitor ≦10 μM, PKC inhibitor <0.5 μM. On the procedure: (§1) FIG. 4A: Jurkat T cells were treated by anti-cd3/anti-cd28/anti-mouse IgG (6 μg/mL) or PMA/Ion (10 ng/mL) for 24 h, IL-2 production in medium was measured by ELISA kit. FIG. 4B-E: Jurkat T cells were pretreated by IKK inhibitor (B), PKC inhibitor (C), CID-2858522 (D) for 2 h and then treated by anti-cd3/anti-cd28/anti-mouse IgG (6 μg/mL) or PMA/Ion (10 ng/mL) for 24 h, IL-2 production in medium was measured by ELISA kit; E, Jurkat cells were treated by CID-2858522, PKC inhibitor and IKK inhibitor for 24 h, cell viability was measured by ATPlite kit.
In T cells, the antigen receptor stimulates several signal transduction pathways that converge on the IL-2 gene promoter, including NF-κB, NF-AT, and AP-1. For evaluating the effects of CID-2858522 on TCR-initiated, NF-κB-driven events in lymphocytes, we employed Jurkat T-leukemia cells, which have been utilized extensively as model for studying TCR-signaling leading to IL-2 gene expression. For these experiments, Jurkat cells were stimulated with either anti-CD3 (to activate the TCR complex) and anti-CD28 (co-stimulator) or with PMA/Ionomycin, in the presence or absence of CID-2858522, IKK inhibitor, or PKC inhibitor, then IL-2 production was measured 24 hrs later in culture supernatants. […] In contrast, CID-2858522 suppressed IL-2 production by CD3/CD28- and PMA/Ionomycin-stimulated Jurkat cells by approximately half (IC50) at concentrations <10 μM (FIG. 4D).
Lymphokine measurements. Human IL-2 or IL-8 levels in culture medium were measured by Enzyme-Linked Immunosorbent Assays (ELISAs), using BD OptEIA ELISAs (BD Biosciences, San Diego, Calif.), according to the manufacturer's protocol, using 96-well ELISA plates (BD Biosciences) and measuring absorbance within 30 minutes of initiating reactions using a SpectraMax 190 spectrophotometer (Molecular Devices).
On the technique in general: ELISA stands for enzyme-linked immunosorbent assay.

Another data set has as its system Jurkat cells. In words: Jurkat cell viability (ATPlite). The data set is classed as cell-based. As to conditions: 24 h. The method, then:
as §1
Cell viability assay. Cell viability was estimated based on cellular ATP levels, measured using ATPlite kit (Perkin Elmer). Cells at a density of 10^5/mL were seeded at 90 μL per well in 96-well white plates and cultured overnight. Compounds were added (5 μL in medium) to wells and cells were cultured for […], Finally, 50 μL ATPlite solution was added to each well and luminescence activity was read using a luminometer (LJL Biosystems, Sunnyvale, Calif.).

Results on three molecules are retold here after patent publication US20090247520A1, “INHIBITORS OF ANTIGEN RECEPTOR-INDUCED NF-kappa B ACTIVATION” (The Burnham Institute for Medical Research, priority 2008, published 2009).

Molecules are shown by their SMILES. pIC50: −log10 of the molar value. Where two headings read alike, the source gives them in different places.

For `Cc1ccc2nc(NCCN)c3ncc(C)n3c2c1` [BMS-345541, reference compound], the pIC50 in data set [1] (Lymphocyte) is ~5.70. Moreover, the “suppression of lymphocyte proliferation” value in data set [1] (concentrations of 5 μM, stimulus not specified) is listed as “essentially completely suppressed”. The “suppression of IL-2 production” value in data set [2] is 90%. For the same molecule, in the data set with Jurkat cells, the “cytotoxicity to Jurkat cells” value is given as “not due to cytotoxicity”.
On to `CN(C)CCCn1cc(C2=C(c3c[nH]c4ccccc34)C(=O)NC2=O)c2ccccc21` [Bisindolylmaleimide I, reference compound], for which the pIC50 in data set [1] is 6.70. Besides, the “suppression of IL-2 production” value in data set [2] was 80-90%. For the same molecule, in the data set on Jurkat cells, the “cytotoxicity to Jurkat cells” value is “not due to cytotoxicity”.
For `Cc1cc2nc(NCCCO)n(CC(=O)c3cc(C(C)(C)C)c(O)c(C(C)(C)C)c3)c2cc1C` [Compound 1, 2-(2-(3-Hydroxypropylamino)-5,6-dimethyl-1H-benzo[d]imidazol-1-yl)-1-(3,5-di-tert-butyl-4-hydroxyphenyl)ethanone], the pIC50 in data set [1] (Lymphocyte) was 5.70; in data set [2] (Homo sapiens, CD3/CD28-stimulated Jurkat cells, 24 h, read-out: IC50, suppression of IL-2 production (by approximately half)), > 5.00. Moreover, the “cytotoxicity to Jurkat cells” value in the data set with Jurkat cells is given as “not due to cytotoxicity”.
